Experimental data taken from ChEMBL document CHEMBL5291721, “A preclinical secondary pharmacology resource illuminates target-adverse drug reaction associations of marketed drugs” (Nat Commun, 2023).

Experiments:
[1] = target: T1, Alpha-2C adrenergic receptor (Homo sapiens, UniProt P18825); format: functional
T1 sequence (P18825 whole entry): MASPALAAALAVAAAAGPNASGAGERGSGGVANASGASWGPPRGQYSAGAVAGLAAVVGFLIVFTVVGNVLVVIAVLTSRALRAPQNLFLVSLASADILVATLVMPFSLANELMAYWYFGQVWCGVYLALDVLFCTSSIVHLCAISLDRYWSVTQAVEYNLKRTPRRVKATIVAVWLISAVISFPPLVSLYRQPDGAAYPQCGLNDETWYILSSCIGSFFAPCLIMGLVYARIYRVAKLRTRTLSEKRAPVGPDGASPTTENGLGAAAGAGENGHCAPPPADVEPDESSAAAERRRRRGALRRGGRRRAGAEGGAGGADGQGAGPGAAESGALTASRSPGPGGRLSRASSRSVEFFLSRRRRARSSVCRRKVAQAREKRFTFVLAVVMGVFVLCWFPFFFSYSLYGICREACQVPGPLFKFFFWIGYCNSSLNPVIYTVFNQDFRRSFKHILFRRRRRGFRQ

[2] = target: T2, Cholecystokinin receptor type A (Homo sapiens, UniProt P32238)
T2 sequence (P32238 whole entry): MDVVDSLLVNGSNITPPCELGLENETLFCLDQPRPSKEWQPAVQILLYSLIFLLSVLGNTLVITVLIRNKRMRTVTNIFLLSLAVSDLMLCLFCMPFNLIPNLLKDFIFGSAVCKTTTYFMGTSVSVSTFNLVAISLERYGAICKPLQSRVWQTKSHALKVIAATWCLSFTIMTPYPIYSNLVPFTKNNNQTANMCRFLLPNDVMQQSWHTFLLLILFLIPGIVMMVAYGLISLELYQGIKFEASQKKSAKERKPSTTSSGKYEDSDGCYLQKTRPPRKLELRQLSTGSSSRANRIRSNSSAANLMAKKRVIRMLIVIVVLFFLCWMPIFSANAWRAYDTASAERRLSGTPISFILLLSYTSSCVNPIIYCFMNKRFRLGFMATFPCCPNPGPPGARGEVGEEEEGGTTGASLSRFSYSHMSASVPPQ

[3] = target: T3, Gastrin/cholecystokinin type B receptor (Homo sapiens, UniProt P32239)
T3 sequence (P32239 whole entry): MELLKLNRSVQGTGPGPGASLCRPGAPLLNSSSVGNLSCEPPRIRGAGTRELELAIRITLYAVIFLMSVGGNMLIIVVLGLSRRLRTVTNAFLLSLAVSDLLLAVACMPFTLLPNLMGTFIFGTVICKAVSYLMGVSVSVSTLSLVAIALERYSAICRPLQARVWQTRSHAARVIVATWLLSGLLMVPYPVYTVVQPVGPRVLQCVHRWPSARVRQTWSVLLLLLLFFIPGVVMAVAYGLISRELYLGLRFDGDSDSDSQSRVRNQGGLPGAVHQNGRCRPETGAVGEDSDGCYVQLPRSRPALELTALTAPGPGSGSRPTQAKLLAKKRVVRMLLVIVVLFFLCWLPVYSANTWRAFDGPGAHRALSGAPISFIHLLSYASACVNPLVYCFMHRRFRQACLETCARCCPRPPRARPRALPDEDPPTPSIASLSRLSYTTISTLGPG

[4] = target: T4, 5-hydroxytryptamine receptor 2C (Homo sapiens, UniProt P28335)
T4 sequence (P28335 whole entry): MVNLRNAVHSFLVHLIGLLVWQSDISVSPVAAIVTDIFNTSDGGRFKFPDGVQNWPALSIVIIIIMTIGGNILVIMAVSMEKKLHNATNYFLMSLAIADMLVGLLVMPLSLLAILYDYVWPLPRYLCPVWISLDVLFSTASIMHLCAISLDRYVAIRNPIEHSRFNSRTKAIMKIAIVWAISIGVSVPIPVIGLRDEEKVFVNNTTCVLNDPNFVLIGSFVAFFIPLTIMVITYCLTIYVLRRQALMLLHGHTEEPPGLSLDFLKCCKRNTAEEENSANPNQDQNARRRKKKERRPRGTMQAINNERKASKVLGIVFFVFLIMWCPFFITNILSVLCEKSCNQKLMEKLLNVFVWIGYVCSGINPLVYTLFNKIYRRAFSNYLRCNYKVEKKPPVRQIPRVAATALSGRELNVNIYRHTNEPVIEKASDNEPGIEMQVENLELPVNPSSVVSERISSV

[5] = target: T5, Alpha-1A adrenergic receptor (Homo sapiens, UniProt P35348)
T5 sequence (P35348 whole entry): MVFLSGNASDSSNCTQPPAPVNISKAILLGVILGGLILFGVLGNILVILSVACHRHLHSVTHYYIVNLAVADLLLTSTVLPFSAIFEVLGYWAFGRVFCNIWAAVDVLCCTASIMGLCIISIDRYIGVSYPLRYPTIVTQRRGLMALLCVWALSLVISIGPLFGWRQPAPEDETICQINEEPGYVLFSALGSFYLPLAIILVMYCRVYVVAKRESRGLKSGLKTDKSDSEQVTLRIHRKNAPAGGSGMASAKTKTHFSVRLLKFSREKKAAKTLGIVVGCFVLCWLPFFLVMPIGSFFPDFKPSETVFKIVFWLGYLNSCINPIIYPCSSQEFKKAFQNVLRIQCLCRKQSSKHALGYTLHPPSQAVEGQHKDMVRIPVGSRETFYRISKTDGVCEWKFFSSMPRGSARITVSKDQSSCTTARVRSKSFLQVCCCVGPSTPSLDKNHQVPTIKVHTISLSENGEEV

Cannabinoid receptor 1 = Cannabinoid receptor 1 (Homo sapiens, UniProt P21554)
Sequence of Cannabinoid receptor 1 (P21554 whole entry): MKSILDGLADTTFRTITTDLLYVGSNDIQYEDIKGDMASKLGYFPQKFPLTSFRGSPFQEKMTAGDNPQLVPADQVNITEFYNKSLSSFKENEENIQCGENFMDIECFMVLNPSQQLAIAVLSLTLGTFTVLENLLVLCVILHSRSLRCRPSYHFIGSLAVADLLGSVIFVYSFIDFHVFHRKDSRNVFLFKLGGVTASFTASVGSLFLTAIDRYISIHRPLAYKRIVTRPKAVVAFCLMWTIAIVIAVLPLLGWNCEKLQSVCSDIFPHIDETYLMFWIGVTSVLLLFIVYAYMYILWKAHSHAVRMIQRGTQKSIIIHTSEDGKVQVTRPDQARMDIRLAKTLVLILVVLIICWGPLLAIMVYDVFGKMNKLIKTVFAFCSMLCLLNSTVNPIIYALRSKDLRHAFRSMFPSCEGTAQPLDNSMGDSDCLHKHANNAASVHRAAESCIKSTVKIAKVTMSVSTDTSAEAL

Melanocortin receptor 4 = Melanocortin receptor 4 (Homo sapiens, UniProt P32245)
Sequence of Melanocortin receptor 4 (P32245 whole entry): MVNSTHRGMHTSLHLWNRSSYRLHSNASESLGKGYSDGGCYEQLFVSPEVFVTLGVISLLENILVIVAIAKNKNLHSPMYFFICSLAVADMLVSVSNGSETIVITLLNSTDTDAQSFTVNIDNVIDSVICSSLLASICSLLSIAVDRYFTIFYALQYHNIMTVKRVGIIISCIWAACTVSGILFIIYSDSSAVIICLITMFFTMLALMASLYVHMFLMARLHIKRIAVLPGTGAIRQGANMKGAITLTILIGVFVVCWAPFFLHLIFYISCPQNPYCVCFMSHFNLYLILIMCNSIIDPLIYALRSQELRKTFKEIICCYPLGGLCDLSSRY

Mu-type opioid receptor = Mu-type opioid receptor (Homo sapiens, UniProt P35372)
Sequence of Mu-type opioid receptor (P35372 whole entry): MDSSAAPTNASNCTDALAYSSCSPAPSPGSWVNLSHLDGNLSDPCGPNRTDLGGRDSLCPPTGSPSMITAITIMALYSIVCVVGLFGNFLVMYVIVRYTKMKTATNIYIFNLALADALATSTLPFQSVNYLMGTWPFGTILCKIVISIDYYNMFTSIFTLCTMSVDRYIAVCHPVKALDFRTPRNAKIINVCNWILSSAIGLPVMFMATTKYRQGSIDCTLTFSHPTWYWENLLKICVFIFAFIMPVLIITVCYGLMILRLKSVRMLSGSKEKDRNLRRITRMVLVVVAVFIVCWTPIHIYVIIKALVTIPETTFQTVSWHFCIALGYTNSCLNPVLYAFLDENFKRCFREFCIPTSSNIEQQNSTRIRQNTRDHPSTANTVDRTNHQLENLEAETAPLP
Also: assay procedure not described here.

Molecule | AC50 [1] [µM] | AC50 [2] [µM] | AC50 [3] [µM] | AC50 [4] [µM] | AC50 [5] [µM] | AC50 (Cannabinoid receptor 1) [µM] | AC50 (Melanocortin receptor 4) [µM] | AC50 (Mu-type opioid receptor) [µM]
O=C(C[S+]([O-])C(c1ccccc1)c1ccccc1)NO (stereo not drawn) | > 30 | > 30 | > 30 | > 30 | – | – | – | –
COc1ccc2c(c1)c(CC(=O)OCC(=O)O)c(C)n2C(=O)c1ccc(Cl)cc1 [ACEMETACIN] | > 30 | > 30 | > 10 | > 30 | – | – | – | –
CC(=O)OCC(=O)[C@@]12OC3(CCCC3)O[C@@H]1C[C@H]1[C@@H]3CCC4=CC(=O)C=C[C@]4(C)[C@@]3(F)[C@@H](O)C[C@@]12C [AMCINONIDE] | > 10 | > 10 | – | > 30 | > 10 | 4.25 | > 10 | > 30
CN1C(=O)COc2c(C(=O)NC3CN4CCC3CC4)cc(Cl)cc21 (stereo not drawn) [AZASETRON] | > 30 | > 30 | > 30 | > 30 | – | – | – | –
Cc1cc2c(OCC(CNC(C)(C)C)OC(=O)c3ccccc3)cccc2[nH]1 (stereo not drawn) [BOPINDOLOL] | 3 | > 30 | > 30 | > 30 | – | – | – | –
CCCCN1CCCCC1C(=O)Nc1c(C)cccc1C (stereo not drawn) [BUPIVACAINE] | > 30 | > 30 | > 30 | > 30 | – | – | – | –
CC(C)C(=O)OCC(=O)[C@@]12O[C@H](C3CCCCC3)O[C@@H]1C[C@H]1[C@@H]3CCC4=CC(=O)C=C[C@]4(C)[C@H]3[C@@H](O)C[C@@]12C [CICLESONIDE] | > 10 | > 10 | – | > 30 | > 10 | 12.1 | > 10 | > 30
CCOC(=O)[C@H](CCc1ccccc1)N[C@H]1CCCN2CCC[C@@H](C(=O)O)N2C1=O [CILAZAPRIL] | > 30 | > 30 | > 30 | > 30 | – | – | – | –
CCOc1cc(N)c([N+](=O)[O-])cc1C(=O)NC1CCN(CC2CC=CCC2)CC1 (stereo not drawn) [CINITAPRIDE] | 1.3 | > 30 | > 30 | – | – | – | – | –
CC(C)(Oc1ccc(C2CC2(Cl)Cl)cc1)C(=O)O (stereo not drawn) [CIPROFIBRATE] | > 30 | > 30 | > 30 | > 30 | – | – | – | –
CN1C(=O)CC(=O)N(c2ccccc2)c2cc(Cl)ccc21 [CLOBAZAM] | > 10 | > 10 | – | > 30 | > 10 | > 10 | > 10 | > 30
COC(=O)[C@H]1[C@@H](OC(=O)c2ccccc2)C[C@@H]2CC[C@H]1N2C [COCAINE] | > 30 | > 30 | > 30 | > 30 | – | – | – | –
Cc1c(O)c(=O)ccn1C [DEFERIPRONE] | > 30 | > 30 | > 30 | > 30 | – | – | – | –
CC(=O)O[C@@]12CO[C@@H]1C[C@H](O)[C@@]1(C)C(=O)[C@H](O)C3=C(C)[C@@H](OC(=O)[C@H](O)[C@@H](NC(=O)OC(C)(C)C)c4ccccc4)C[C@@](O)([C@@H](OC(=O)c4ccccc4)[C@H]21)C3(C)C [DOCETAXEL ANHYDROUS] | > 30 | > 30 | 19.2 | > 30 | > 30 | > 30 | > 30 | –
CCCCCCCCCCCC[N+](C)(C)CCOc1ccccc1 [DOMIPHEN] | 4.2 | > 30 | > 10 | 1.1 | – | – | – | –
CCNC(C)Cc1cccc(C(F)(F)F)c1 (stereo not drawn) [FENFLURAMINE] | – | > 30 | > 30 | – | – | > 10 | > 30 | > 30
COc1ccc(C(=O)NCc2ccc(OCCN(C)C)cc2)cc1OC [ITOPRIDE] | > 30 | > 30 | > 30 | > 30 | – | – | – | –
CN1CC[C@]23CCCC[C@H]2[C@H]1Cc1ccc(O)cc13 [LEVORPHANOL] | > 30 | > 10 | – | > 30 | – | > 10 | > 10 | –
O=C(OCCN1CCOCC1)c1cccnc1Nc1cccc(C(F)(F)F)c1 [MORNIFLUMATE] | > 30 | > 30 | > 30 | > 30 | – | – | – | –
CCCCCCCCOc1ccccc1C(=O)Nc1ccc(C(=O)OCC[N+](C)(CC)CC)cc1 [OTILONIUM BROMIDE] | 8.2 | > 30 | > 1 | 1.1 | – | – | – | –
Cc1nc2ccc(CN(C)c3ccc(C(=O)N[C@@H](CCC(=O)O)C(=O)O)s3)cc2c(=O)[nH]1 [RALTITREXED] | > 30 | > 30 | > 10 | > 30 | – | > 30 | – | –
C#CCN[C@@H]1CCc2ccccc21 [RASAGILINE] | 21 | > 30 | > 30 | > 30 | 20 | > 30 | > 30 | –
C1COC(NC(C2CC2)C2CC2)=N1 [RILMENIDINE] | 6.8 | > 30 | > 30 | > 30 | 4.39 | – | > 30 | > 30
O=C1NCCN1CCN1CCC(c2cn(-c3ccc(F)cc3)c3ccc(Cl)cc23)CC1 [SERTINDOLE] | – | > 30 | > 30 | – | 0.017 | – | – | –
Cc1c(C(=O)Nc2ccc(N3C[C@@H](C)O[C@@H](C)C3)nc2)cccc1-c1ccc(OC(F)(F)F)cc1 [SONIDEGIB] | > 10 | > 30 | > 30 | > 30 | – | > 10 | > 30 | > 10
CC[C@]1(O)C[C@@H]2CN(CCc3c([nH]c4ccccc34)[C@@](C(=O)OC)(c3cc4c(cc3OC)N(C)[C@H]3[C@@](O)(C(N)=O)[C@H](O)[C@]5(CC)C=CCN6CC[C@]43[C@@H]65)C2)C1 [VINDESINE] | > 30 | > 30 | > 30 | > 30 | – | > 30 | – | –
CN1CCN(C(=O)OC2c3nccnc3C(=O)N2c2ccc(Cl)cn2)CC1 (stereo not drawn) [ZOPICLONE] | > 30 | > 30 | > 30 | > 10 | > 10 | – | > 30 | > 10
TOCOFERSOLAN | > 30 | > 30 | > 30 | > 30 | – | – | – | –
